Measurements from patent US11459546B2, “Method for producing somatic cell, somatic cell, and composition” (Kyoto Prefectural Public University Corporation, priority 2016, dated 2022).

Tested on: Human skin fibroblasts
Assay: Direct transformation from human fibroblast to brown adipocyte (Example B)
Format: cell-based
Parameters: key: the mark “++++” indicates that almost all of the fibroblasts were transformed into brown adipocytes; +++: the larger the number of the marks “+” is, the higher the transformation efficiency is; ++: the larger the number of the marks “+” is, the higher the transformation efficiency is; the larger the number of the marks “+” is, the higher the transformation efficiency is; The mark “−” indicates that the fibroblasts were not transformed into brown adipocytes
Conditions: fibroblast of subject; judged from UCP1 immunostaining and cell states, FIG. 4 to FIG. 8
Procedure: Human skin fibroblasts were purchased from DS Pharma Biomedical Co., Ltd. Cell information is described in the following table.
About 1.5×10^5 cells were seeded on a 35 mm dish containing a high-glucose DMEM medium (11995-065, Gibco, MA, USA) to which 10% fetal bovine serum (FBS) (HyClone, Utah, USA) and penicillin/streptomycin (Gibco) were added.
After each of the human fibroblasts reached 80-90% confluence, the medium was changed to start direct transformation into the brown adipocyte. The adipocyte medium for use was prepared by adding an additive reagent containing ascorbic acid, biotin, pantothenic acid, triiodothyronine, octanoic acid, insulin, dexamethasone, IBLMX (3-isobutyl-1-methylxanthine), FBS and penicillin/streptomycin (MK425, Takara Bio Inc.) to a high-glucose DMEM medium (043-30085, Wako Pure Chemical Industries, Ltd.). […]
Immunocytochemistry was performed in accordance with a previous report (Dai P, et al. J Clin Biochem Nutr. 2015; 56 (3): 166-70). […] All images were acquired using a fluorescence microscope (Axio Vert. A1, Carl Zeiss, Oberkochen, Germany). […]
The efficiencies of transformation into the adipocyte-like cells with various combinations of the compounds were evaluated from the results shown in FIG. 4 to FIG. 8, and the results are shown in the following table. […]

Q: How did the “Efficiency (transformation into the adipocyte-like cells)” value turn out when `CN(CCOc1ccc(CC2SC(=O)NC2=O)cc1)c1ccccn1` (stereo not shown) [Ro only, Rosiglitazone] was run?
A: −
